Laboratory results reported in the COVID Moonshot data (paper PMC7615835).
Values joined by “and” are separate entries in the source; they are usually repeats but may differ in a detail not shown here. Identical values can stand only once.

Target: SARS-CoV-2 Main Protease (SARS-CoV-2) (UniProt P0DTD1)

Structure (SMILES)	IC50
Cc1cn2ccc(C(=O)Nc3nc(-c4cnn(C)c4)cs3)cc2n1	> 99.5 µM
O=C(Cc1cccc(Cl)c1)Nc1cncc2cc(F)cc(Cl)c12	0.718 µM
O=C(Cc1cc(Cl)cc(-c2nnc[nH]2)c1)Nc1cncc2ccccc12	5.3 µM
O=C(Cc1cc(Cl)cc(Nc2ccc(-n3cccn3)cc2)c1)Nc1cncc2ccccc12	2.12 µM
N#CC1(CS(=O)(=O)N2Cc3ccc(Cl)cc3C3(CCN(c4cncc5cc(F)cc(Cl)c45)C3=O)C2)CC1 (stereo not drawn)	23.8 µM
COc1ccccc1OC(C)CNC(=O)c1cc(=O)[nH]c2cc(F)ccc12 (stereo not drawn)	> 99.5 µM
CC1CN(C)CCN1C(=O)CC1(C(=O)Nc2cncc3ccccc23)CCOc2ccc(Cl)cc21 (stereo not drawn)	7.87 µM and 4.85 µM
CCS(=O)(=O)Nc1ccc2cncc(NC(=O)Cc3cccc(Cl)c3)c2c1	1.02 µM
O=C(c1ccc2nnnn2c1)N1CCn2c(cc3ccccc32)C1	> 99.5 µM
CC(C)(c1ccc(N(C(=O)c2cocn2)C(C(=O)NCCc2cccc(F)c2)c2cccnc2)cc1)S(C)(=O)=O (stereo not drawn)	67.8 µM
C[C@H](N)C(=O)N[C@@H](CCC(N)=O)C(=O)O (stereo in doubt)	> 99 µM
O=C(Nc1c[nH]c(=O)c2ccccc12)C1CCOc2ccc(Cl)cc21 (stereo not drawn)	> 99.5 µM
Cc1nc(N2CCN(S(=O)(=O)c3ccccc3)CC2)sc1S(N)(=O)=O	> 99.5 µM
N#Cc1ccc(N(C(=O)c2ccco2)C(C(=O)NCCc2cccc(F)c2)c2cccnc2)cc1 (stereo not drawn)	10.4 µM
O=C(c1ccnn1C1CC1)N1Cc2ccc(Cl)cc2C2(CCN(c3cncc4ccccc34)C2=O)C1 (stereo not drawn)	0.163 µM
O=C(NCCc1cccc(F)c1)C(c1cccnc1)N(C(=O)c1ccco1)C1CCN(c2ccccc2)CC1 (stereo not drawn)	79.6 µM
Cc1ccncc1C(C(=O)NCCc1cccc(F)c1)N(C(=O)c1cocn1)c1ccc(C(C)(C)C)cc1 (stereo not drawn)	0.653 µM
N#CCc1cccc(NC(=O)c2cnn3cc(Br)cnc23)n1	> 99.5 µM
N#Cc1ncc(F)cn1	> 99.5 µM
COC[C@@]1(C(=O)Nc2cncc3ccccc23)CCOc2cc(Cl)c(Cl)cc21 (stereo in doubt)	13 µM and 21.9 µM
O=C(Nc1cncc2c1CNCC2)C1CCOc2ccc(Cl)cc21 (stereo not drawn)	6.16 µM
CS(=O)(=O)Nc1cccc(C2=NN(C(=O)CCl)C(c3ccccc3)C2)c1 (stereo not drawn)	5.83 µM
CN(C)C(=O)CN1CC(C(=O)Nc2cncc3ccccc23)c2cc(Cl)ccc2C1=O (stereo not drawn)	0.734 µM
O=C(NCCc1cccc(F)c1)C(c1cccnc1)N(C(=O)c1cocn1)C1CCC2OCCC2C1 (stereo not drawn)	> 99.5 µM
Cc1ccc(-c2ccc(C(=O)N3CC[C@H](N)C3)c(F)c2)cc1 (stereo in doubt)	> 99.5 µM

Structure (SMILES)	IC50
O=C(NCCc1cccc(F)c1)C(c1cccnc1)N(C(=O)c1cocn1)C1CCC2(CCO2)CC1 (stereo not drawn)	> 99.5 µM
O=C(Cc1cc(Cl)cc(Nc2ccc3c(c2)OCCO3)c1)Nc1cncc2ccccc12	2.12 µM
CNC(=O)CN1CC(C)(C(=O)Nc2cncc3cc(S(C)(=O)=O)ccc23)c2cc(Cl)ccc2S1(=O)=O (stereo not drawn)	0.131 µM and 0.189 µM
CC(C)(C)c1cc(Nc2cc(Cl)cc(CC(=O)Nc3cncc4ccccc34)c2)n(-c2ccccc2)n1	2.04 µM
CN(C)c1ccc(C(Cc2ccsc2)C(=O)Nc2nnc3ccccn23)cc1 (stereo not drawn)	> 99.5 µM
CC(C)(C)c1ccc(N(C(=O)c2cn(C3COCC3=O)nn2)C(C(=O)NCCc2cccc(F)c2)c2cccnc2)cc1 (stereo not drawn)	19.5 µM
N#Cc1nccc(Cl)n1	> 99.5 µM
CC(C)(C)c1ccc(N(C(=O)c2nc3ncc(CCO)cn3n2)C(C(=O)NCCc2cccc(F)c2)c2cccnc2)cc1 (stereo not drawn)	> 99.5 µM
CNC(=O)CN1Cc2ccc(Cl)cc2C2(CCN(c3cncc4cccc(Cl)c34)C2=O)C1 (stereo not drawn)	3.28 µM
Cc1ccncc1NC(=O)C(C)c1cc(Cl)cc(OC2CC(=O)N2)c1 (stereo not drawn)	77.1 µM
Cc1ccc(S(=O)(=O)NCC(=O)N2CCC(NS(N)(=O)=O)CC2)cc1	> 99.5 µM
CC1(C(=O)Nc2cncc3cc(S(C)(=O)=O)ccc23)CNS(=O)(=O)c2ccc(Cl)cc21 (stereo not drawn)	0.172 µM
COC(CNC(=O)C(c1cccnc1)N(C(=O)c1cocn1)c1ccc(C(C)(C)C)cc1)OC (stereo not drawn)	7.91 µM
O=C(Nc1cncc2ccccc12)C1CCN(Cc2cnc[nH]2)c2ccc(Cl)cc21 (stereo not drawn)	1.12 µM
NC(=O)c1ccncc1NC(=O)Cc1cccc(Cl)c1	> 99.5 µM
COc1cc(OC)nc(C#N)n1	> 99.5 µM
Cn1cncc1NC(=O)Cc1cccc(Cl)c1	93.9 µM
N#CC1(CS(=O)(=O)N2Cc3ccc(Cl)cc3C(C(=O)Nc3cncc4ccccc34)C2)CCCC1 (stereo not drawn)	0.079 µM and 0.0884 µM
CSc1ccc(CN(C(=O)c2ccco2)C(C(=O)NCCc2cccc(F)c2)c2cccnc2)cc1C#N (stereo not drawn)	54.9 µM
Cc1cc(F)cc(Br)c1Nc1cc(Cl)cc(CC(=O)Nc2cncc3ccccc23)c1	2 µM
O=C1O[C@@]2(CCOc3ccc(Cl)cc32)C(=O)N1c1cncc2ccccc12 (stereo in doubt)	> 99.5 µM
O=C(O)[C@@H](c1ccccc1)N1Cc2ccccc2C1=O (stereo in doubt)	1.78 µM
COc1cc2c(cc1OC)CN(c1cc(Cl)cc(CC(=O)Nc3cncc4ccccc34)c1)CC2	1.65 µM
O=C(CCl)N1CCN(S(=O)(=O)c2c(F)cccc2F)CC1	3.43 µM and 3.14 µM
COc1cccc(CN2CCN(C(=O)c3cc(=O)[nH]c4ccccc34)CC2)c1	27.3 µM

Structure (SMILES)	IC50
O=C(Cc1cc(Cl)cc(Nc2ccc(Br)c3ccccc23)c1)Nc1cncc2ccccc12	1.98 µM
O=C(Cc1ccc(C(F)(F)F)cc1)Nc1cncc2ccccc12	24.8 µM
O=C(CN(C(=O)Cn1nnc2ccccc21)c1ccc(-c2ccccc2)cc1)N1CCNCC1	> 99.5 µM
O=C(Cc1cc(Cl)cc(Nc2cccc(OC(F)(F)F)c2)c1)Nc1cncc2ccccc12	1.93 µM
O=C(NCCCO)c1ccc(N(C(=O)c2cocn2)C(C(=O)NCCc2cccc(F)c2)c2cccnc2)cc1 (stereo not drawn)	> 99.5 µM
Nc1nn(C(=O)Cc2cccc(Cl)c2)c2ccccc12	> 99.5 µM
COc1ccccc1OCC(C)NC(=O)c1cc(=O)[nH]c2cc(F)ccc12 (stereo not drawn)	40.5 µM and 26.9 µM
CC(C)(C)c1ccc(N(C(=O)c2ccco2)C(C(=O)NCCc2cccc(F)c2)c2snc3ccccc23)cc1 (stereo not drawn)	5.33 µM
Cc1nc2ccc(N(C(=O)c3cocn3)C(C(=O)NCCc3cccc(F)c3)c3cccnc3)cc2o1 (stereo not drawn)	> 99.5 µM
O=C(c1cc(F)cc(F)c1)N1CCOc2cc(O)ccc2C1	> 99.5 µM
CS(=O)(=O)Nc1ccc(Cl)cc1C(=O)N1CCC(C2CCNC2)CC1 (stereo not drawn)	> 99.5 µM
Cc1cc(Nc2cc(Cl)cc(CC(=O)Nc3cncc4ccccc34)c2)cc(C)c1Br	2.14 µM
O=C(NC1CCCCC1)[C@@H]1CN(C(=O)CCl)CCN1S(=O)(=O)c1ccsc1 (stereo in doubt)	1.14 µM
O=C(Nc1cnn2ccccc12)C1CCS(=O)(=O)c2ccc(Cl)cc21 (stereo not drawn)	3.89 µM
NS(=O)(=O)C1Cc2ccccc2N(CCNS(=O)(=O)c2ccccc2)C1 (stereo not drawn)	> 99.5 µM
COc1ccc(N2CCN(C(=O)c3cc(=O)[nH]c4ccccc34)CC2)cc1	14.7 µM
O=C(Cc1cc(Cl)cc(NC[C@H](O)c2ccc(O)cc2)c1)Nc1cncc2ccccc12 (stereo in doubt)	1.64 µM
COc1ccc(N(Cc2ccccc2)C(=O)Cc2c[nH]c3ccccc23)cc1	> 99.5 µM
O=C(CN1CC(C(=O)Nc2cncc3cc(F)ccc23)c2cc(Cl)ccc2C1=O)NCC1CC1 (stereo not drawn)	0.216 µM
O=C(Cc1cc(Cl)cc(Nc2ncc(Br)c(C(F)(F)F)n2)c1)Nc1cncc2ccccc12	1.84 µM
CS(=O)(=O)Nc1ccc2cncc(NC(=O)C3CN(S(=O)(=O)CC4(C#N)CC4)Cc4ccc(Cl)cc43)c2c1 (stereo not drawn)	0.267 µM
CC1(C(=O)Nc2cncc3cc(S(C)(=O)=O)ccc23)CN(CC(=O)NC2CC2)S(=O)(=O)c2ccc(Cl)cc21 (stereo not drawn)	0.468 µM
O=C(Cc1cc(Cl)cc(Nc2cc(Cl)cc([N+](=O)[O-])c2O)c1)Nc1cncc2ccccc12	4.69 µM
N#CC1(CS(=O)(=O)N2Cc3ccc(Cl)cc3C(C(=O)Nc3cncc4c[nH]nc34)C2)CC1 (stereo not drawn)	1.05 µM
CC(C)c1nc(CN(C)c2cc(Cl)cc(CC(=O)Nc3cncc4ccccc34)c2)cs1	2.63 µM

Structure (SMILES)	IC50
O=C(Cc1ccccc1Cl)Nc1cncc2ccccc12	> 99.5 µM
CN(C)c1ccc(N(Cc2ccccc2)C(=O)Cn2nnc3ccccc32)cc1	5.05 µM
O=C(Cc1cc(Cl)cc(Nc2ccccc2Oc2ccccc2)c1)Nc1cncc2ccccc12	2.19 µM
C=CC(=O)N(c1cc(C(C)(C)C)on1)C(C(=O)NC(C)(C)C)c1cccnc1 (stereo not drawn)	> 99 µM
CC(C)(C)c1ccc(N(C(=O)c2cc(O)cc(=O)o2)C(C(=O)NCCc2cccc(F)c2)c2cccnc2)cc1 (stereo not drawn)	> 99.5 µM
O=C(NCCc1cccc(F)c1)C(c1cccnc1)N(C(=O)c1cnc[nH]1)c1cnc(C2CCC2)nc1 (stereo not drawn)	> 99 µM
CC(C)(C)c1ccc(N(C(=O)c2ocnc2C(F)(F)F)C(C(=O)NCCc2cccc(F)c2)c2cccnc2)cc1 (stereo not drawn)	> 99.5 µM
CNC(=O)CN1CC(C(=O)Nc2cncc3ccc(C(C)(C)O)cc23)c2cc(Cl)ccc2C1=O (stereo not drawn)	0.384 µM
COC(=O)c1ccc(-c2cc(Cl)cc(CC(=O)Nc3cnccc3C)c2)c(OC)c1	9.62 µM and 16.8 µM
O=C(Nc1cccc2c[nH]nc12)C1CCOc2ccc(Cl)cc21 (stereo not drawn)	> 99.5 µM
O=C(Cc1cc(Cl)cc(NCc2ccc(Oc3ccccc3)cc2)c1)Nc1cncc2ccccc12	5.82 µM
CC(C)(C)NC(=O)CN1CC(C(=O)Nc2cncc3cc(S(C)(=O)=O)ccc23)c2cc(Cl)ccc2C1=O (stereo not drawn)	0.248 µM
CC(C)(C)c1ccc(N(C(=O)c2n[nH]c(=O)[nH]c2=O)C(C(=O)NCCc2cccc(F)c2)c2cccnc2)cc1 (stereo not drawn)	> 99.5 µM
O=C1CC(Oc2cc(Cl)cc(CC(=O)Nn3cnc4ccccc4c3=O)c2)N1 (stereo not drawn)	> 99.5 µM
CN1CCN(c2ccc(F)cc2C(=O)N2CCC(C3CCNC3)CC2)CC1 (stereo not drawn)	> 99.5 µM
CCOc1ccc(CNc2cc(Cl)cc(CC(=O)Nc3cncc4ccccc34)c2)cc1	3.41 µM
COC(=O)C1CC(NC(=O)C(c2cccnc2)N(C(=O)c2cocn2)c2ccc(C(C)(C)C)cc2)C1 (stereo not drawn)	3.99 µM
CC(C)(C(N)=O)c1ccc(N(Cc2ccsc2)C(=O)Cn2nnc3ccccc32)cc1	3.17 µM
O=C(CCc1cccc(Cl)c1)Nc1cncc2ccccc12	20.8 µM
Cc1cc(O)c(C(C(=O)NCCc2cccc(F)c2)N(C(=O)c2cocn2)c2ccc(C(C)(C)C)cc2)c(=O)[nH]1 (stereo not drawn)	> 99.5 µM
COc1cc(C)ccc1N(C(=O)c1ccco1)C(C(=O)NCCc1cccc(F)c1)c1cccnc1 (stereo not drawn)	> 99.5 µM
O=C(Cn1nnc2ccccc21)N(Cc1ccsc1)c1ccc(N2CCOCC2)cc1	11.6 µM
Cc1ccncc1NC(=O)Cc1cccc(C#N)c1	63.7 µM and 59 µM
